From ChEMBL document CHEMBL1201862, “PubChem BioAssay data set” (2004)
The source made the active and inactive calls.

Columns and labels:
Mu-type opioid receptor = Mu-type opioid receptor (Homo sapiens, UniProt P35372); type: functional, cell-based;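 note: U2OS cells with beta-arrestin recruitment to OPRM1 by beta-gal complementation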
[1] = target: 5-hydroxytryptamine receptor 2A (Mus musculus, UniProt P35363); type: functional, cell-based;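 note: CHO-K1 cells with tagged receptor and beta-arrestin; agonist potency measured as compound-induced activation of the receptor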
cells [2] = type: functional, cell-based
[3] = target: Nuclear receptor subfamily 0 group B member 1 (Homo sapiens, UniProt P51843); type: functional, cell-based;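 note: HEK293T cells transfected with SF-1 and DAX-1 plus StAR promoter luciferase reporter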
[4] = target: FAD-linked sulfhydryl oxidase ALR (Homo sapiens, UniProt P55789); assay: ALR-catalysed DTT oxidation blockers – biochemical, H2O2 detection, luminescence, cherry-pick, dose response (AID 493248)
fMet-Leu-Phe receptor = fMet-Leu-Phe receptor (Homo sapiens, UniProt P21462); assay: formyl peptide receptor binders – dose response (AID 519); type: functional
Aminopeptidase N = target: T1, Aminopeptidase N (Plasmodium falciparum FcB1/Columbia, UniProt O96935); assay: malaria alanyl aminopeptidase activity blockers – biochemical, fluorogenic H-Leu-NHMec substrate, 1536-well (AID 1445); parameters: species or system Plasmodium falciparum 3D7, 3D7
T1 sequence (O96935 whole entry): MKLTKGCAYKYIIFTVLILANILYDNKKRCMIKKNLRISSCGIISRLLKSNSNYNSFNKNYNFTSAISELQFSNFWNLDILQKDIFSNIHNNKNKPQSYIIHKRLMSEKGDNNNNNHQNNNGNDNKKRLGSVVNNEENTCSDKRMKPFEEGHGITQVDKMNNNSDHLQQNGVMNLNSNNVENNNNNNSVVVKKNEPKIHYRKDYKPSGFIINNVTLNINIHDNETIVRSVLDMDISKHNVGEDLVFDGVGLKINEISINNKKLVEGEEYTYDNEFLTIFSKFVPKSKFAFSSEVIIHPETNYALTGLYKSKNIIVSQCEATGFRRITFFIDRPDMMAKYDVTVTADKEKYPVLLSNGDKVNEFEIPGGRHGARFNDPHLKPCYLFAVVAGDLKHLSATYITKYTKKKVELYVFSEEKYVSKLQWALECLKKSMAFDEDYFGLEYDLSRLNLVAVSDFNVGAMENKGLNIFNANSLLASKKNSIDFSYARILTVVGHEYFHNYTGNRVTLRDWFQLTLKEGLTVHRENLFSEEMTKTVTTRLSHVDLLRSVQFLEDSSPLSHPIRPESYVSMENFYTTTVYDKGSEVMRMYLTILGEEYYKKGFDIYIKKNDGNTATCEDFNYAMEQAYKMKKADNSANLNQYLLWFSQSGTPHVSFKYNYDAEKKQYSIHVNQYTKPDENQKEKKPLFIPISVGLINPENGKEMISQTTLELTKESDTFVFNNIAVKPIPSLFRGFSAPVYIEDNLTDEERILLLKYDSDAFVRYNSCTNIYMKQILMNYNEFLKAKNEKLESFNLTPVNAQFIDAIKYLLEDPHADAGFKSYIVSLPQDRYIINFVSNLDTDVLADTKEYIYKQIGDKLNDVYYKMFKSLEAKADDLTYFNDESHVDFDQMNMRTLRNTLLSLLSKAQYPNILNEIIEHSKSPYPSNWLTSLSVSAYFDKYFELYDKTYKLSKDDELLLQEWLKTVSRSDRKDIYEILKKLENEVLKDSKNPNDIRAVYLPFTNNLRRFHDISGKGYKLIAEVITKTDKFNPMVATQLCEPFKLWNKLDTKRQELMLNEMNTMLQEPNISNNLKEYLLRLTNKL

[5] = target: Long-chain-fatty-acid--AMP ligase FadD28 (Mycobacterium tuberculosis, UniProt P9WQ59); assay: Fluorescence polarization aasay to screen for inhibitors that compete for the binding of FadD28 to a bisubstrate Measured in Biochemical System Using Plate Reader - 2147-01_Inhibitor_Dose_CherryPick_Activity.; type: functional, Mycobacterium tuberculosis H37Rv
[6] = target: Endoplasmic reticulum aminopeptidase 1 (Homo sapiens, UniProt Q9NZ08); assay: inhibition of human ERAP1 enzyme activity – biochemical, cherry-pick, set 2, plate reader, dose response (AID 743314)
[7] = target: T2, Beta-2 adrenergic receptor (Homo sapiens, UniProt P07550); assay: ADRB2 activation measured by internalization – cell-based, FAP fluorogen, flow cytometry, cherry pick 1, dose response (AID 588763); type: functional
[8] = target: T2, Beta-2 adrenergic receptor; assay: Dose response for HTS for Beta-2AR agonists via FAP method from Powderset3.; type: functional
[9] = target: Fructose-bisphosphate aldolase (Mycobacterium tuberculosis, UniProt P9WQA3); assay: Fluorescence-based biochemical high throughput dose response assay for inhibitors of the fructose-bisphosphate aldolase (FBA) of M. tuberculosis.; type: functional
Major prion protein = Major prion protein (Homo sapiens, UniProt P04156); type: functional, cell-based
cells [10] = assay: cells
[11] = target: Botulinum neurotoxin type F (Clostridium botulinum, UniProt P30996); assay: High-throughput multiplex microsphere dose response for inhibitors of toxin protease, specifically Botulinum neurotoxin light chain F protease, compounds from Cherry Pick 02.; type: functional; details: read-out: EC50_MICROM
Protein skinhead-1 = target: T3, Protein skinhead-1 (Caenorhabditis elegans, UniProt P34707); type: functional
T3 sequence (P34707 whole entry): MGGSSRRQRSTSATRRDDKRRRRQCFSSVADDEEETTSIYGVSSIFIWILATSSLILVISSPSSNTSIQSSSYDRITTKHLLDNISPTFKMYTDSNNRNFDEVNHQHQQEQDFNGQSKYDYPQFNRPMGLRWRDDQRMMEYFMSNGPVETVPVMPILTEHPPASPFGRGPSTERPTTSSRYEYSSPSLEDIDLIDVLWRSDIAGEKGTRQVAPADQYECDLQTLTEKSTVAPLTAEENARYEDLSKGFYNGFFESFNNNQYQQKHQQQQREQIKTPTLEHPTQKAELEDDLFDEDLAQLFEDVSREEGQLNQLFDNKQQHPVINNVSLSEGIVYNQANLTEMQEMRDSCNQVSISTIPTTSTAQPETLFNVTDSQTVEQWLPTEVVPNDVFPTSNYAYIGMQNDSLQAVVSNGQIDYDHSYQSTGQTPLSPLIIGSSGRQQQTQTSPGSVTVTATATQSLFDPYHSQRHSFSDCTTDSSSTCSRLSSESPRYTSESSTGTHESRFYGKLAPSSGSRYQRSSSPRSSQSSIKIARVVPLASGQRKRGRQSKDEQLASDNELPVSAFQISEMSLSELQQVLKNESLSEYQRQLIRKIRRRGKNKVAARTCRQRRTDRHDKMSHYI

Vero = assay: viability loss in Vero cells – cell-based, plate reader, cherry-pick samples, cytotoxicity control, dose response (AID 687020); type: functional; details: Chlorocebus sabaeus

CCCCCc1cc(=O)oc2c(C(CCN3CCN(c4ccccc4)CC3)c3ccc4c(c3)OCO4)c(OC)cc(OC)c12 (configuration not stated)
EC50 (Mu-type opioid receptor): 92.5 µM (inactive) | EC50 [1]: 76.1 µM (inactive)

CCc1ccc(NC(=O)N2CCc3ccccc3C2)cc1
IC50 (cells [2]): > 67.6 µM (inactive) | IC50 [3]: > 67.6 µM (inactive)

Cc1nnc(SCc2cnc(-c3ccccc3)o2)nc1O
AC50 [4]: 0.547 µM (active) | Ki (fMet-Leu-Phe receptor): > 66.7 µM (inactive)

CCOc1ccc(-n2c(=S)sc3c(O)nc(SCC(=O)N4CCC(C)CC4)nc32)cc1
IC50 (Aminopeptidase N): 30 µM (active) | AC50 [5]: 99 µM (active)

CCN1CCN(Cc2c(O)ccc3c(C)cc(=O)oc23)CC1
AC50 [6]: 10 µM (active)

O=C(c1cc2c(=O)n3ccccc3nc2s1)N1CCN(Cc2ccc3c(c2)OCO3)CC1
EC50 [7]: 0.0693 µM (active) | EC50 [8]: 0.00977 µM (active) | IC50 [9]: > 1.11 µM (active)

CCOC(=O)C(C)Sc1nc(-c2ccccc2)nc2ccccc12 (configuration not stated)
IC50 (Major prion protein): 1.83 µM (active) | IC50 (cells [10]): > 138 µM (inactive)

CCC(=O)NCCn1c(C)cc2ccccc21
EC50 [11]: > 20 µM (inactive) | IC50 (Protein skinhead-1): > 100 µM (inactive)

CC(=O)Nc1cccc(OCCCNC(=O)c2ccc(C(C)(C)C)cc2)c1
AC50 (Vero): 35.3 µM (active)
